Data taken from ChEMBL document CHEMBL4342516, “Discovery of Membrane-Bound Pyrophosphatase Inhibitors Derived from an Isoxazole Fragment” (ACS Med Chem Lett, 2020).
Activity calls are given as the source filed them. The calls are words filed in the database; no cut-off is given here.

Columns and labels:
Thermotoga maritima = assay: Inhibition of Thermotoga maritima membrane bound pyrophosphatase at 100 uM using sodium pyrophosphate as substrate preincubated for 5 mins followed by substrate addition and measured after 5 mins by spectrophotometry relative to control
[1] = Inhibition of Thermotoga maritima membrane bound pyrophosphatase at 100 uM using sodium pyrophosphate as substrate preincubated for 5 mins followed by substrate addition and measured after 5 mins by spectrophotometry
Plasmodium falciparum [2] = assay: (§1) Inhibition of Plasmodium falciparum 3D7 pyrophosphatase-VP1 expressed in baculovirus infected insect cells using sodium pyrophosphate as substrate preincubated for 5 mins followed by substrate addition and measured after 10 mins by spectrophotometry
[3] = as §1
Plasmodium falciparum [4] = assay: Antiplasmodial activity against Plasmodium falciparum 3D7 infected in human erythrocytes assessed as growth inhibition after 72 hrs by SYBR Gren-I fluorescent dye based method; format: functional, organism-based; conditions: 3D7, 72 h

| Compound | IC50 ([1]; read-out: IC50) | further results |
| --- | --- | --- |
| O=C(O)c1cc(-c2ccccc2[N+](=O)[O-])on1 | 71 µM | inhibition (Thermotoga maritima): > 50% |
| Cc1nc(-c2cc(C(=O)O)no2)cs1 | 17 µM |  |
| CC(C)(C)c1cc(-c2cc(C(=O)Oc3ccccc3Br)no2)cc(C(C)(C)C)c1 | 10 µM | inhibition (Plasmodium falciparum [2]): inactive |
| O=c1[nH]c2ccc(S(=O)(=O)CCO)cc2o1 | 43 µM | inhibition (Thermotoga maritima): > 50% |
| Cc1cccc(-c2cc(C(=O)Oc3ccccc3Br)no2)c1 | 6.1 µM |  |
| CC(C)(C)c1cc(C(=O)Nc2ccc([N+](=O)[O-])cc2)cc(C(C)(C)C)c1 | 100 µM |  |
| Nc1ccc(S(=O)(=O)N2CCCC2C(=O)O)cc1 (stereo not given) | 110 µM | inhibition (Thermotoga maritima): > 50% |
| Cc1cc(C)cc(-c2cc(C(=O)Oc3ccccc3)no2)c1 | 26 µM |  |
| CC(C)(C)c1cc(C(=O)NCCCn2ccnc2)cc(C(C)(C)C)c1 | 210 µM |  |
| O=C(O)c1cc(-c2ccc([N+](=O)[O-])cc2)[nH]n1 |  | IC50 [1]: Not Active |
| CCOC(=O)c1ccc(S(=O)(=O)NC2=NC(=O)CS2)cc1 | 120 µM | inhibition (Thermotoga maritima): > 50% |
| Cc1cc(C)cc(-c2cc(C(=O)Oc3ccccc3Br)no2)c1 | 6.9 µM | IC50 [3]: 55 µM; IC50 (Plasmodium falciparum [4]): 99 µM |
| O=C(O)c1csc(-c2ccc([N+](=O)[O-])cc2)n1 | 80 µM |  |
| CC(C)(C)c1cc(C(=O)Nc2ccccc2Br)cc(C(C)(C)C)c1 | 47 µM |  |
| CCOC(=O)c1cc(-c2cc(C(C)(C)C)cc(C(C)(C)C)c2)on1 | 72 µM |  |
| CC(C)(C)c1cc(C(=O)Nc2nccs2)cc(C(C)(C)C)c1 | 39 µM |  |
| CC(C)(C)c1cccc(-c2cc(C(=O)Oc3ccccc3Br)no2)c1 | 6.7 µM |  |
| CC(C)(C)c1cc(CCC(=O)O)cc(C(C)(C)C)c1 |  | IC50 [1]: Not Active |
| CC(C)(C)c1cc(C(=O)Nc2nc3ccccc3s2)cc(C(C)(C)C)c1 | 91 µM |  |
| O=C(O)c1cnc(-c2ccccc2)s1 | 29 µM |  |
| Cc1cc(C)cc(-c2cc(C(=O)Nc3ccccc3Br)no2)c1 |  | IC50 [1]: Not Active |
| O=C(Oc1ccccc1Br)c1cnc(-c2ccccc2)s1 | 48 µM |  |
| CCOC(=O)c1cc(-c2ccc(OC)c(S(=O)(=O)Nc3cccc4c3OCO4)c2)on1 | 36 µM |  |
| O=C(O)c1cc(-c2ccccc2)n[nH]1 | 130 µM |  |
| Cc1nc(-c2cc(C(=O)Oc3ccccc3Br)no2)cs1 | 460 µM |  |
| CC(C)(C)c1cc(C(=O)Nc2ccc(S(N)(=O)=O)cc2)cc(C(C)(C)C)c1 | 47 µM |  |
| CC(C)(C)c1cc(C(=O)NCC(=O)O)cc(C(C)(C)C)c1 |  | IC50 [1]: Not Active |
| Cc1c(-c2cc(C(=O)O)no2)cnn1C |  | IC50 [1]: Not Active |
